Literature values in patent US20020103139A1, “Solid self-emulsifying controlled release drug delivery system composition for enhanced delivery of water insoluble phytosterols and other hydrophobic natural compounds for body weight and cholestrol level control” (priority 2000, published 2002).

Assays:
[1] = treated patients versus placebo
[2] = doses of 700 and 300 mg

Compound: CCNC(C)Cc1cccc(C(F)(F)F)c1 (stereo not drawn) [fenfluramine]
- average weight lost more than with placebo [1]: 5 pounds

Compound: CCN[C@@H](C)Cc1cccc(C(F)(F)F)c1 [dexfenfluramine]
- average weight lost more than with placebo [1]: 5 pounds

Compound: CC[C@H](CC[C@@H](C)[C@H]1CC[C@H]2[C@@H]3CC[C@H]4C[C@@H](O)CC[C@]4(C)[C@H]3CC[C@]12C)C(C)C [sitostanol]
- difference in cholesterol reduction between doses [2]: No significant difference
